What was measured:
[1] = system: rotations induites par la pirenzépine; experiment: Pirenzepine-induced rotations test (Worms et al., modified: oral dosing 4 h before pirenzepine); format: in vivo; conditions: 3 mg/kg body weight, 4 h before pirenzepine injection
Protocol: In vivo, les composés selon l'invention ont été essayés sur le test des rotations induites par la pirenzépine décrit par Worms P. et al. (Psychopharmacology, 1987, 93, 489-493) modifié en ce que l'administration des produits par voie orale qui a eu lieu 4 heures au lieu de 30 minutes avant l'injection de pirenzépine.

récepteurs de type M1 = target: T1, récepteurs de type M1 (Homo sapiens, UniProt P11229); experiment: Muscarinic M1 receptor ligand binding (technique of Watson et al.); conditions: in vitro; read-out: concentration inhibitrice 50 sur le ligand des récepteurs M1
T1 construct: une spécificité marquée pour les récepteurs centraux de type M1 vis-à-vis des récepteurs périphériques de type M2; from tissue; host or cells: central (brain) tissue
T1 sequence (P11229 1-460): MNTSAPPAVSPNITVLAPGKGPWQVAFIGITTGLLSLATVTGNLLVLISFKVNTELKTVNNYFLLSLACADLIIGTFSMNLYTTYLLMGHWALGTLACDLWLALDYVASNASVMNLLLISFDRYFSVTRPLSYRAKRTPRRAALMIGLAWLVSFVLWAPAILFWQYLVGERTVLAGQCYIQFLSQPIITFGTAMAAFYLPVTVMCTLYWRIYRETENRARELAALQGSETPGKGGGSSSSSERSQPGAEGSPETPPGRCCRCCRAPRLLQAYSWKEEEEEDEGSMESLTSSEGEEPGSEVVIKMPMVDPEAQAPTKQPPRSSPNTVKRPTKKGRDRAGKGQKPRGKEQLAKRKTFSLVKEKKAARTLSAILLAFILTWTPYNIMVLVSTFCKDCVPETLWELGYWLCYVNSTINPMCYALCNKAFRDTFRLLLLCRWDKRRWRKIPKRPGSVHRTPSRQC
Source text: In vitro, les composés (I) ont été essayés suivant la technique décrite par Watson J.D. et al. (Life Science, 1982, 31, 2019-2029) en ce qui concerne leur activité sur les récepteurs de type M1 et selon la technique décrite par Hammer R. et al. (Nature, 1980, 283, 90,92) et Hulme E.C. et al. (Molecular Pharmacology, 1978, 14, 737-750), en ce qui concerne leur activité sur les récepteurs de type M2.

Row | Compound | inhibition des rotations induites par la pirenzépine [1] [%] | IC50 (récepteurs de type M1) [nM]
1 | Cc1cc(NCc2ccccn2)nnc1-c1ccccc1 [SR 96204 A] | 67 | 
2 | CCCc1cc(NCC2CCCN2CC)nnc1-c1ccccc1 (stereo not drawn) [SR 96181] | 71 | 30
